The test has as its system intestinal Caco-2 cells. The test can be described thus: Impedance measurement of Caco-2 cells in culture after adding cupric chloride. It is filed as cell-based. From the text: The device used is specifically described as follows. That is, the support body is made of PDMS, and the size of the compartment in the support body (the combined size of the upper compartment and the lower compartment) is 15 mm in length, 6 mm in width, and 1.6 mm in height. This compartment is divided into an upper compartment and a lower compartment each with a height of approximately 0.8 mm using a polyester porous membrane which is provided with a diameter of 0.4 μm and a thickness of 14 μm (code 3450, made by CORNING INC.). Gold-plated brass nail-shaped objects with a length of 15 mm, an external diameter of 0.5 mm, and its circular head portion with a thickness of 0.4 mm and a diameter of 1.2 mm are used as the upper electrode and the lower electrode using a flat surface of the head portion as a measuring surface. Also, the upper electrode is fixed to the support body with its surface opposite to the surface facing the lower electrode in contact with the inside surface of the upper support body, while the lower electrode is fixed to the support body with its surface facing the upper electrode in contact with the semipermeable membrane. At this time, the distance between the surfaces of the upper electrode that faces the lower electrode and the lower electrode is 0.4 mm. Then, these electrodes are connected to an alternating-current power supply. Culturing conditions: As the culture medium, 10% fetal bovine serum, 1% MEM nonessential amino acid solution, 20 mM HEPES buffer solution, […] penicillin, 100 μg streptomycin, and 1 μg amphotericin added to DMEM (Dulbecco's Minimum Essential Medium) is used, and culturing is performed at an ambient temperature of 37 degrees C., with the carbon dioxide concentration maintained at 5%. Measurement condition: Measurement is performed by using a commercially available impedance analyzer, by applying an AC electrical field of 10 mV amplitude (1 Hz to 10 MHz) across the electrodes. Using the device used in Example 1, while culturing intestinal Caco-2 cells to which cupric chloride is added; impedance of the cells was measured. The culturing conditions of the cells and impedance measurement conditions are the same as in Example 1. The culture medium was replaced every two days, with the impedance measurement being performed before and after the culture medium replacement. Culturing was normally performed until the seventh day from the start of culturing. After impedance measurement, cupric chloride was added to a concentration of 30 μM to the culture medium, and the cell culturing was continued as it was from the moment directly after the cupric chloride was added (0 hours) to four hours after the addition. After the passage of four hours, the impedance was measured, and the culture medium containing the cupric chloride was washed away by a culture medium not containing the cupric chloride, accordingly washing was performed while the cells in culture were remained in the device. During this period, the impedance of the cells in culture was arbitrarily measured. In the legend shown in FIG. 3, “3 days” means the third day from the start of culturing, while “7 days (4 hours after addition)” means four hours after addition of cupric chloride to the culture medium on the seventh day from the start of culturing.

Structures are written as SMILES.

Consider one compound from patent publication US20070212773A1, “Electrical signal measuring device for cells in culture and electrical signal measuring method that uses same device” (priority 2006, published 2007).

`[Cl][Cu][Cl]` [cupric chloride]: the “change in impedance amplitude (membranous structure)” value (shortened to “change in impedance amplitude”) (30 μM for 4 h, then washed, 25 hours after the addition, breakdown of the membranous structure) is listed as “reduction”; the “change in impedance amplitude” value (30 μM for 4 h, then washed, 48 hours after the addition, renewal of the membranous structure) was “increase”; the “change in impedance amplitude” value (30 μM in culture medium, added on seventh day of culturing, until four hours from the addition) is “hardly any changes”. Besides, the “impedance phase θ around 10^6 Hz region” value (30 μM for 4 h, then washed, 25 hours after the addition, curve shifted to higher frequency side) was −53 degrees and the “impedance phase θ around 10^6 Hz region” value (30 μM for 4 h, then washed, 48 hours after the addition, curve shifted to lower frequency side) was −58 degrees. Besides, the “change in impedance phase spectra curve” value (30 μM, added on seventh day of culturing, until four hours from the addition) is given as “without large changes”.
